The record followed here is patent publication US9751875B2, “Quinine compounds, and optical isomers, preparation method and medical use thereof” (BEIJING FSWELCOME TECHNOLOGY DEVELOPMENT CO., LTD., priority 2013, dated 2017).

Like-named read-outs stand apart in the source and are kept apart here.

Test [1] relates to tracheal smooth muscle from guinea pigs (contraction induced by 3 × 10^−6 mol/L of CCh). Put plainly: Antagonism in vitro of contraction of isolated tracheal smooth muscle from guinea pigs induced by carbachol (CCh). The note with it: cumulative dosing. The format is cell-based, guinea pig. From the text: Preparation of the Isolated Tracheal Smooth Muscle Specimen from a Guinea Pig:
After a guinea pig was narcotized with urethane, the trachea between the throat and carina of the guinea pig was taken out rapidly, and placed in the Krebs-Henseleit (K-H) solution (composition (g/L): NaCl 6.92, KCl 0.35, CaCl2 0.28, KH2PO4 0.16, MgSO4.7H2O 0.4568, NaHCO3 2.1, Glucose 2.0) with a mixture gas of 5% CO2 and 95% O2 purged. After loose connective tissues and fats around the trachea were separated, the trachea was cut into trachea pieces having a width of about 3 mm and a length of 20 mm by a surgical scissor, with both ends of the trachea piece ligated with 4˜0 silk suture, and then placed into a thermostatic bath containing 5 ml of K—H solution (pH 7.4) at 37° C., with the mixture gas of 5% CO2 and 95% O2 continuously purged. A muscle tension transducer was connected to the upper end so as to apply 1.0 g of resting tension to the specimen, the change of the tension was recorded, the culture solution was replaced every 20 min, and the test was started after being balanced for 60 min.
Administration method: After the trachea piece was stabilized, 3×10^−6 mol/L of CCh was added into a bath, and after the contractile tension of the trachea piece reached a peak level, the example compounds, ipratropium bromide and tiotropium bromide were added into a Magnus bath by a cumulative dosing regimen with a dosage of 10^−9˜10^−5 mol, respectively, and the diastolic condition of the trachea piece was observed: if no response occurred (below the threshold concentration), a next dosage was continued to be added in sequence; if response occurred, after it reached a diastolic plateau, a next dosage was further added. The above operation was repeated until the contractile curve reached the minimum value. Finally, 10^−6 mol/L of isoprenaline was added so that the maximum relaxation would be reached and the curve was recorded.
Statistical approach: The result was expressed as mean ±standard deviation, and counted by Sigma Stat statistical package. The data was analyzed by using variance analysis, the comparison among means of a plurality of specimen was performed by using Student-Newman-Keuls(SNK) test; statistical significant level α=0.05 (bilateral).
Compounds shown in Table 5 were further prepared according to the present invention, and their IC50 […] of resistance to the contraction of tracheal smooth muscle from guinea pigs induced by a concentration of 3×10^−6 mol/L of CCh was determined.

The test system is the same in test [2]. The description is as above. It is filed as cell-based, guinea pig.
Setting [3] is: Cavia porcellus, 3 × 10^−6 mol/L of CCh, read-out: IC50 (μM), antagonism in vitro against the contraction of the tracheal smooth muscle induced by CCh.
[4] abbreviates: read-out: IC50 (μM), antagonism in vitro against the contraction of the tracheal smooth muscle induced by CCh, 3 × 10^−6 mol/L of CCh.
Setting [5] is: Cavia porcellus, read-out: IC50 (μM), antagonism in vitro against the contraction of the tracheal smooth muscle induced by CCh, 3 × 10^−6 mol/L of CCh.
Setting [6] is: 3 × 10^−6 mol/L of CCh, read-out: IC50 (μM), antagonism in vitro against the contraction of the tracheal smooth muscle induced by CCh.

As to `OC(CO[C@H]1C[N+]2(CCCOc3ccccc3)CCC1CC2)(c1ccccc1)C1CC1` (stereo partly drawn) [Example 19, (2R,3S)-3-[(2-cyclopropyl-2-hydroxyl-2-phenyl)ethoxyl]-1-(3-phenoxypropyl)-1-azabicyclo[2,2,2]octane bromide], in test [1] (setting [3]), the IC50 was determined as 1.76 µM. Moreover, in test [2], the “Onset time” value was found to be 6.68 min and the “Time for eliminating inhibition effect (min)” value is reported as “more than 300 min”.
On to `OC(CO[C@H]1C[N+]2(CCCOc3ccccc3)CCC1CC2)(c1ccccc1)C1CC1.[Br-]` (stereo partly drawn) [Example 20, (2S,3S)-3-[(2-cyclopropyl-2-hydroxyl-2-phenyl)ethoxyl]-1-(3-phenoxypropyl)-1-azabicyclo[2,2,2]octane bromide], for which the IC50 in test [1] (setting [4]) was found to be 2.35 µM. Further, in test [2], the “Onset time” value came out at 6.32 min and the “Time for eliminating inhibition effect (min)” value is recorded as “more than 300 min”.
Taken in the same sequence, the figures for `OC(CO[C@@H]1C[N+]2(CCCOc3ccccc3)CCC1CC2)(c1ccccc1)C1CC1.[Br-]` (stereo partly drawn) [Example 21, (2S,3R)-3-[(2-cyclopropyl-2-hydroxyl-2-phenyl)ethoxyl]-1-(3-phenoxypropyl)-1-azabicyclo[2,2,2]octane bromide] were 1.35 µM, 6.79 min and “more than 300 min”.
Taken in the same sequence, the figures for `OC(CO[C@@H]1C[N+]2(CCCOc3ccccc3)CCC1CC2)(c1ccccc1)C1CC1.[Br-]` (stereo partly drawn) [Example 22, (2R,3R)-3-[(2-cyclopropyl-2-hydroxyl-2-phenyl)ethoxyl]-1-(3-phenoxypropyl)-1-azabicyclo[2,2,2]octane bromide] were 0.373 µM, 6.45 min and “more than 300 min”.
For `OC(CO[C@H]1C[N+]2(CCCOc3ccccc3)CCC1CC2)(c1ccccc1)C1CC1` (stereo partly drawn) [Example 24, (2R,3R),(2S,3S) Configuration of 3-[(2-cyclopropyl-2-hydroxyl-2-phenyl)ethoxyl]-1-(3-phenoxypropyl)-1-azabicyclo[2,2,2]octane bromide], in test [1] (setting [3]), the IC50 stood at 0.451 µM. In addition, in test [2], the “Onset time” value came out at 6.58 min and the “Time for eliminating inhibition effect (min)” value was “more than 300 min”.
Regarding `OC(CO[C@@H]1C[N+]2(CCOc3ccccc3)CCC1CC2)(c1ccccc1)C1CCCC1.[Br-]` (stereo partly drawn) [Example 25, (2S,3R)-3-[(2-cyclopentyl-2-hydroxyl-2-phenyl)ethoxyl]-1-(2-phenoxyethyl)-1-azabicyclo[2,2,2]octane bromide], the IC50 in test [1] (setting [5]) stood at 0.867 µM. In test [2], the “Onset time” value is recorded as 6.36 min and the “Time for eliminating inhibition effect (min)” value is listed as “more than 300 min”.
Taken in the same sequence, the figures for `OC(CO[C@@H]1C[N+]2(COc3ccccc3)CCC1CC2)(c1ccccc1)C1CCCC1.[Br-]` (stereo partly drawn) [Example 27, (2R,3R)-3-[(2-cyclopentyl-2-hydroxyl-2-phenyl)ethoxyl]-1-phenoxymethyl-1-azabicyclo[2,2,2]octane bromide] were 0.0363 µM, 5.89 min and “more than 300 min”.
As for `OC(CO[C@@H]1C[N+]2(COCOc3ccccc3)CCC1CC2)(c1ccccc1)C1CCCC1.[Cl-]` (stereo partly drawn) [Example 28, (2R,3R)-3-[(2-cyclopentyl-2-hydroxyl-2-phenyl)ethoxyl]-1-phenoxymethoxymethyl-1-azabicyclo[2,2,2]octane chloride], in test [1] (setting [3]), the IC50 came out at 0.0264 µM. In test [2], the “Onset time” value was determined as 6.06 min and the “Time for eliminating inhibition effect (min)” value was “more than 300 min”.
On to `OC(COC1C[N+]2(CCCOc3ccccc3)CCC1CC2)(c1cccc2ccccc12)C1CCCC1.[Br-]` [Example 29, (2R,3R)-3-[(2-cyclopentyl-2-hydroxyl-2-naphthyl)ethoxyl]-1-(3-phenoxypropyl)-1-azabicyclo[2,2,2]octane bromide], for which the IC50 in test [1] (setting [5]) is 0.723 µM. In test [2], the “Onset time” value is on record as 7.14 min and the “Time for eliminating inhibition effect (min)” value is “more than 300 min”.
Taken in the same sequence, the figures for `OC(COC1C[N+]2(CCCOc3ccccc3)CCC1CC2)(c1ccccc1Cl)C1CCCC1.[Br-]` [Example 30, (2R,3R)-3-[(2-cyclopentyl-2-hydroxyl-2-o-chlorophenyl)ethoxyl]-1-(3-phenoxypropyl)-1-azabicyclo[2,2,2]octane bromide] were 0.0371 µM, 5.98 min and “more than 300 min”.
Taken in the same sequence, the figures for `OC(COC1C[N+]2(CCCOc3ccccc3)CCC1CC2)(c1cccnc1)C1CCCC1.[Br-]` [Example 31, (2R,3R)-3-[(2-cyclopentyl-2-hydroxyl-2-(3-pyridyl))ethoxyl]-1-(3-phenoxypropyl)-1-azabicyclo[2,2,2]octane bromide] were 0.0206 µM, 6.37 min and “more than 300 min”.
For the compound `OC(COC1C[N+]2(CCCOc3ccccc3)CCC1CC2)(c1ccco1)C1CCCC1.[Br-]` [Example 32, (2R,3R)-3-[(2-cyclopentyl-2-hydroxyl-2-(2-furyl))ethoxyl]-1-(3-phenoxypropyl)-1-azabicyclo[2,2,2]octane bromide], in test [1] (setting [5]), the IC50 was 0.0379 µM. Also, in test [2], the “Onset time” value is recorded as 5.85 min and the “Time for eliminating inhibition effect (min)” value is listed as “more than 300 min”.
Taken in the same sequence, the figures for `COC(COC1C[N+]2(CCCOc3ccccc3)CCC1CC2)(c1cccnc1)C1CCCC1.[Br-]` [Example 33, (2R,3R)-3-[(2-cyclopentyl-2-methoxyl-2-(3-pyridyl))ethoxyl]-1-(3-phenoxypropyl)-1-azabicyclo[2,2,2]octane bromide] were 0.139 µM, 6.17 min and “more than 300 min”.
On to `CC(C)[N+]1(C)[C@@H]2CC[C@H]1CC(OC(=O)C(CO)c1ccccc1)C2.[Br-]` (stereo partly drawn) [ipratropium bromide, reference compound], for which the IC50 in test [1] (setting [6]) was 0.0361 µM. Further, in test [2], the “Onset time” value is on record as 6.82 min and the “Time for eliminating inhibition effect” value was found to be 185 min.
In the case of `C[N+]1(C)[C@@H]2C[C@@H](OC(=O)C(O)(c3cccs3)c3cccs3)C[C@H]1[C@@H]1O[C@@H]12` [tiotropium bromide, reference compound], the IC50 in test [1] (setting [5]) came out at 0.0142 µM. In test [2], the “Onset time” value came to 30.37 min and the “Time for eliminating inhibition effect (min)” value was “more than 300 min”.
Regarding “(2R,3R),(2S,3S) Configuration of 3-[(2-cyclopentyl-2-hydroxyl-2-phenyl)ethoxyl]-1-(3-phenoxypropyl)-1-azabicyclo[2,2,2]octane bromide [Example 6]”, the IC50 in test [1] (setting [6]) worked out at 0.156 µM. In test [2], the “Onset time” value worked out at 6.61 min and the “Time for eliminating inhibition effect (min)” value was “more than 300 min”.
Taken in the same sequence, the figures for “(2R,3R),(2S,3S)-3-[(2-cyclohexyl-2-hydroxyl-2-phenyl)ethoxyl]-1-(3-phenoxypropyl)-1-azabicyclo[2,2,2]octane bromide [Example 12]” were 0.251 µM, 7.13 min and “more than 300 min”.
Taken in the same sequence, the figures for “(2R,3S),(2S,3R)-3-[(2-cyclopropyl-2-hydroxyl-2-phenyl)ethoxyl]-1-(3-phenoxypropyl)-1-azabicyclo[2,2,2]octane bromide [Example 23]” were 2.02 µM, 6.78 min and “more than 300 min”.
